Tests used:
[1] = Dissolution test by microcentrifuge method, Example 6; format: physicochemical; conditions: 37° C., 2.7 mg drug, 3.6 mg polymer or none, 1.8 mL
Method: Dissolution performance was measured at 37° C. using a microcentrifuge method. For these tests, 2.7 mg drug in 0.9 mLs 25% gastric solution/75% HPLC water was added to each of 6 microcentrifuge tubes. At time 0, 0.9mLs 2×PBS without polymer was added to tubes 1 and 2, and 0.9 mLs 2×PBS containing 3.6 mg HPMCAS-MF or cellulose acetate trimellitate (CAT) was added to tubes 3 and 4, or 5 and 6. Samples were taken after 4, 10, 20, 40, 90, and 180 minutes, analyzed by HPLC, and compound concentrations were calculated. Gastric solution is 84 mM HCl, 34 mM NaCl, pH 1.2. PBS is phosphate buffered saline: 20 mM sodium phosphate, 4.7 mM potassium phosphate, 8.2 mM NaCl, 0.2 mM KCl, pH 6.5. “2×PBS” is a solution in which the components of PBS are present at 2-fold higher concentration.

[2] = Solubility of the Example 6 drug at pH 2 and pH 6.8; format: physicochemical; conditions: thermodynamic from solid
Method: A test drug is dissolved in a pH 1-2 environment, typically aqueous deionized distilled water adjusted to a target pH within the aforesaid pH 1-2 range by adding an appropriate amount of hydrochloric acid. The amount of drug added is an amount sufficient to saturate the aqueous test medium. The test medium can be agitated, typically gently, by means of a stirring bar, overhead stirrer, or the like. Typically the test medium is left to sit (while being agitated) for several hours, typically overnight. The sample can then be filtered or centrifuged as previously described, and solubility in the filtrate or supernate can then be measured by determining the concentration with any suitable means of detection appropriate to the drug. Likewise, the solubility is also determined at pH 5 to 7. If the drug's pH 1-2 solubility is 3- or more-fold its pH 5-7 solubility, then the drug will benefit from this invention.

[3] = HPMCAS dispersions, dissolution tests at pH 4.0; cited from earlier work

Row | SMILES | Drug Conc ([1]; 4 min after adding 2xPBS to drug in 25% gastric solution) [µg/mL] | Drug Conc ([1]; 10 min after adding 2xPBS to drug in 25% gastric solution) [µg/mL] | Drug Conc ([1]; 20 min after adding 2xPBS to drug in 25% gastric solution) [µg/mL] | Drug Conc ([1]; 40 min after adding 2xPBS to drug in 25% gastric solution) [µg/mL] | Drug Conc ([1]; 90 min after adding 2xPBS to drug in 25% gastric solution) [µg/mL] | Drug Conc ([1]; 180 min after adding 2xPBS to drug in 25% gastric solution) [µg/mL] | solubility ([2]; deionized distilled water adjusted with hydrochloric acid, pH 2, simulated gastric fluid) [µg/mL] | solubility ([2]; pH 6.8, aqueous buffer) [µg/mL] | supersaturated concentration relative to crystalline MAT [3] [fold]
1 | CN1CCN(c2ccccc2/C=C2\SCCN(c3ccc(Cl)c(Cl)c3)C2=O)CC1.Cl.O [Z-4-(3,4-dichlorophenyl)-2-[2-(4-methylpiperazin-1-yl)-benzylidene]-thiomorpholin-3-one hydrochloride monohydrate] | 518 | 459 | 432 | 317 | 263 | 204 | 3000 | 12 | –
2 | CCC1OC(=O)CC(O)C(C)C(OC2OC(C)C(OC3CC(C)(O)C(OC(=O)Cc4ccc(OC)cc4)C(C)O3)C(N(C)C)C2O)C(CC=O)CC(C)C(=O)C=CC(C)=CC1COC1OC(C)C(O)C(OC)C1OC (stereo not drawn) [MAT, 4″-O-(4-methoxyphenyl)acetyltylosin] | – | – | – | – | – | – | – | – | 9

Reference: patent US6548555B1, “Basic drug compositions with enhanced bioavailability” (Pfizer Inc, priority 1999, dated 2003)
